# Calls of active or inactive are those of the source. How the calls were made is not given here.
# System: S. cerevisiae expressing PfHSP40, growth rescue, plate reader
# Test: S cerevisiae expressing PfHSP40, growth rescue, cherry pick dose confirmatory, plate reader (AID 540271);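 further: yeast growth read after three days of incubation at 30 °C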
row,Compound,AC50
1,CCC1=NN(C(=O)c2cccc(Br)c2)C(O)(c2ccc(Br)cc2)C1 (stereo unspecified),5.92 µM
2,O=c1c2ccccc2nc(-c2ccc(-c3ccccc3)cc2)n1-c1ccncc1,6.21 µM
3,Cc1ccc2oc(-c3ccccc3)c(C(=O)O)c(=O)c2c1,5.94 µM
4,CCOC(=O)c1ccc(-c2ccc(C3Nc4ccccc4C(=O)N3O)o2)cc1 (stereo unspecified),3.91 µM
5,O=C1c2cccc(Cl)c2C(=O)c2c1cccc2N1CCCC1,4.9 µM
6,COc1cc(NC(=O)CSc2ccc(-c3ccccn3)nn2)cc(OC)c1,1.59 µM
7,Cc1ccc(O)c(-c2cc(-c3ccccc3C)[nH]n2)c1,5.42 µM
8,Clc1ccccc1CN(Cc1ccco1)Cc1nnnn1C1CCCC1,5.17 µM
9,COc1ccc(C(=O)On2c(-c3ccc(Br)cc3)nc3ccccc3c2=O)cc1,4.13 µM
10,O/N=C(\c1ccc(Cl)cc1Cl)c1ncc(C(F)(F)F)cc1Cl,9.27 µM
11,O=C(CC1CC2CCC1C2)Nc1nc(-c2ccccn2)cs1 (stereo unspecified),5.1 µM
12,COc1ccc2c(c1)[C@H]1[C@H](CO2)[C@H](c2ccccc2)[C@]2(C)C(=O)Nc3ccc(Cl)cc3C(=O)N12,> 12 µM (inactive)
13,CCCCNc1c(-c2cccc(-c3ccc(OC)cc3)c2)nc2ccc(C)cn12,5.67 µM
14,COC(=O)C1=C(C)NC(C)=C(C(=O)OCC(C)C)C1c1ccccc1[N+](=O)[O-] (stereo unspecified),5.87 µM
15,Cc1onc(-c2ccccc2)c1C(=O)NC(=S)NNC(=O)c1cc(-c2ccc(F)cc2)n[nH]1,> 4.2 µM (inactive)
16,CCOc1cc([N+](=O)[O-])cc(/C=N/NC(=O)c2c(-c3ccccc3)noc2C)c1O,4.9 µM
17,O=C(c1ccc(-c2ccccc2)c(F)c1)C1CCCN(C(=O)c2cncs2)C1 (stereo unspecified),5.68 µM
18,Cn1nnnc1N=N/C(=N/Nc1ccccc1)c1ccccc1,1.85 µM
19,O=C(O)c1ccc(N/N=C/C2=C(N3CCOCC3)C(=C\c3ccccc3)/CC2)cc1,6.18 µM
20,COc1ccc(-n2nc(C#N)c(Cl)cc2=O)cc1,7.48 µM
21,COc1cccc(/C=N/NC(=O)c2cc(-c3cccn3C)n[nH]2)c1O,10.2 µM
22,O=C(/C(=N/N=C/c1ccc(O)c(O)c1O)c1ccccc1)c1ccccc1,6.09 µM
23,Cc1ccccc1NC(=O)CSc1ccc(-c2ccccn2)nn1,4.42 µM

row,Compound,AC50
1,O=S(=O)(Nc1ccccc1)c1ccc(Oc2ncc(C(F)(F)F)cc2Cl)cc1,6.09 µM
2,Clc1ccc(C(Cn2ccnc2)OCc2c(Cl)cccc2Cl)c(Cl)c1 (stereo unspecified),0.241 µM
3,CC(C)NC(=O)NC(=O)COC(=O)c1ccc([N+](=O)[O-])cc1Cl,12 µM
4,Cc1nc2c(o1)C(=O)c1ccccc1C2=Nc1ccccc1,5.02 µM
5,Cc1ccc(C2(c3ccc(C)cc3)CC2C(=O)Nc2ccc([N+](=O)[O-])cc2O)cc1 (stereo unspecified),5.44 µM
6,Cc1ccc(C)c(NS(=O)(=O)c2cc(C(=O)N3CCc4ccccc4C3)ccc2Cl)c1,6.77 µM
7,O=C(Nc1ccccc1N1CCOCC1)c1cc2c(s1)CCCCC2,6.04 µM
8,O=C(Oc1ccc(N(C(=O)c2ccncc2)S(=O)(=O)c2ccc(Cl)cc2)cc1)c1ccncc1,5.85 µM
9,O=c1[nH]cc(F)c(=O)[nH]1,0.562 µM
10,O=c1c(O)c(-c2ccccc2)oc2ccccc12,5.37 µM
11,CCCCc1ccc(-n2c(Cc3cccs3)n[nH]c2=S)cc1,6.45 µM
12,CCCCOC(=O)/C=C/c1ccc(OC(=O)OC)c(OC(=O)OC)c1,5.54 µM
13,O=P(Nc1cccnc1)(Oc1ccccc1Cl)Oc1ccccc1Cl,6.5 µM
14,CCCCCCCc1ccc(-c2ccc(O)cc2)nc1,5.12 µM
15,Cc1cc(C)c(C(=O)CC(=O)c2cccnc2)c(C)c1,2.06 µM
16,CN(Cc1ccc(Cl)s1)C(=O)CCl,6.37 µM
17,Cc1ccc(C(C[N+](=O)[O-])c2c(N)n(C)c(=O)n(C)c2=O)cc1 (stereo unspecified),6.03 µM
18,O=[N+]([O-])c1ccc(Sc2cccc[n+]2[O-])c2nonc12,2.43 µM
19,Oc1cccc2ccc(Nc3ccccn3)nc12,4.98 µM
20,O=C(Nc1nnc(-c2ccccc2)o1)c1ccc(Cl)cc1,1.84 µM
21,COc1ccc2c(c1)OC[C@H]1[C@H]2N2C(=O)c3cc(OC)ccc3NC(=O)[C@@]2(C)[C@H]1c1ccccc1,4.84 µM
22,C=CCn1c(-c2cc(-c3ccc(C)cc3)nc3ccccc23)n[nH]c1=S,5.81 µM
23,CCCCCCCCCCCCCC(=O)NO,0.727 µM

row,Compound,AC50
1,COc1cc(/C=N/O)cc(Br)c1OCc1cccc(Cl)c1,5.31 µM
2,Cc1cc(/C=N/n2cnnc2)c(C)n1-c1ccc(OCc2ccc(F)cc2)cc1,4.69 µM
3,CCOc1ccc(N/N=C(/C#N)C(N)=O)cc1,4.1 µM
4,Cc1[nH]n(-c2cccc3ccccc23)c(=O)c1/C=N/NC(=O)c1cccc([N+](=O)[O-])c1,1.48 µM
5,Cc1ccoc1C(=O)Nc1cccc(Oc2ccccc2)c1,2.85 µM
6,O=c1nc(N/N=C/c2ccccn2)cn[nH]1,5.76 µM
7,CSC1SCC2C(=O)N(C)C(C(C)C)C(=O)OCC(NC(=O)c3cnc4ccccc4n3)C(=O)NC(C)C(=O)N(C)C1C(=O)N(C)C(C(C)C)C(=O)OCC(NC(=O)c1cnc3ccccc3n1)C(=O)NC(C)C(=O)N2C (stereo unspecified),> 12 µM (inactive)
8,O=C(COC(=O)c1ccc([N+](=O)[O-])o1)NCc1ccc(F)cc1,6.66 µM
9,Cc1cccc(C)c1N1C(=O)C2ON(c3ccccc3)C(c3ccncc3)C2C1=O (stereo unspecified),6.34 µM
10,N#C/C(=C\c1cccc(Oc2ccccc2)c1)C(=O)N1CCOCC1,5.91 µM
11,CC(CNC(=O)COc1ccccc1)OC(=O)Nc1ccc(Cl)c(Cl)c1 (stereo unspecified),6.12 µM
12,CC[C@@H](C(=O)[C@@H](C)[C@@H](O)[C@H](C)[C@@H]1O[C@@H]([C@@H](CC)C(=O)O)CC[C@@H]1C)[C@H]1O[C@]2(C=C[C@@H](O)[C@]3(CC[C@@](C)([C@H]4CC[C@](O)(CC)[C@H](C)O4)O3)O2)[C@H](C)C[C@@H]1C,3 µM
13,Cc1noc2ncnc(SCc3ccc(C(F)(F)F)cc3)c12,7.67 µM
14,O=C(NNC(=O)c1cc(Cl)ccc1O)c1ccc(NS(=O)(=O)c2cccs2)cc1,5.61 µM
15,Cc1ccc(S(=O)(=O)Nc2ccc(O)c3cccnc23)cc1,> 12 µM (inactive)
16,Cc1nn(CCC#N)c(N)c1C1(O)C(=O)Nc2c(Cl)cc(Cl)cc21 (stereo unspecified),7.66 µM
17,CN(C)c1ccc(C=c2c3cc(O)ccc3n3c2cc(-c2ccccc2)[n+]3C)cc1,2.88 µM
18,c1ccc(C(=NNc2nc3ccccc3s2)c2ccccn2)cc1,2.52 µM
19,CCc1nc2ccccc2c(=O)n1NC(=O)c1c(O)c2ccccc2n(CC)c1=O,5.74 µM
20,CC(C)(CN1CCc2ccccc2C1)NS(=O)(=O)c1ccc(Cl)cc1,11 µM
21,Cc1cccc(NC(=S)NC(C)CCc2ccccc2)c1 (stereo unspecified),7.92 µM
22,CCCOc1ccc(S(=O)(=O)n2cc(F)c(=O)[nH]c2=O)cc1,3.66 µM
23,CC(=O)c1c(C)oc2c1C(=O)c1ccccc1C2=O,5.09 µM

row,Compound,AC50
1,Oc1c(Br)cc(Br)cc1CNc1ccc(F)cc1,6.21 µM
2,Cc1ccc(Sc2ccc(NC(=O)CCl)cc2)cc1C,4.54 µM
3,O=C(Cc1ccccc1F)Nc1nc(-c2ccc(F)c(F)c2)cs1,6.72 µM
4,O=C(Nc1nnc(-c2cccs2)o1)c1cccc(Oc2ccccc2)c1,2.57 µM
5,CCc1ccccc1OCC(=O)Nc1nc(-c2cccnc2)cs1,1.84 µM
6,Cn1ccc(=Nc2ccc(NC(=O)c3ccc(N=c4ccn(C)c5ccc([N+](=O)[O-])cc45)cc3)cc2)cc1,6.48 µM
7,Cc1c(C(=O)O)cccc1-c1ccc(/C=N/Nc2ccc(Br)cc2)o1,6.31 µM
8,COc1cccc(CNC(=O)CSc2ccc(-c3ccccn3)nn2)c1,5.07 µM
9,Cc1cccc2sc(NNC(=O)c3ccc(S(=O)(=O)N4CC(C)CC(C)C4)cc3)nc12 (stereo unspecified),1.65 µM
10,Cc1nnc(N=c2ssnc2Cl)o1,3.22 µM
11,Cc1ccc(CCNc2ncnc(Cl)c2N)cc1,4.48 µM
12,COc1ccc2oc(=O)c(-c3csc(Nc4cccc(O)c4)n3)cc2c1,4.91 µM
13,CCOC(=O)c1ccc(N2C(=O)CC(N(C)CCc3ccc(OC)c(OC)c3)C2=O)cc1 (stereo unspecified),5.96 µM
14,Nc1nc2sc3c(c2c(=O)s1)CCCC3,3.58 µM
15,CC(C)(C)c1cc(-c2nc(N)nc(N)n2)c(O)c(C(C)(C)C)c1,4.99 µM
16,CCCn1c2ccccc2c2cc(C(=O)O)ccc21,7.09 µM
17,CCCn1nc(C(=O)N2CCN(S(=O)(=O)c3ccc(C)c(C)c3)CC2)c2ccccc2c1=O,6.13 µM
18,O=C(Nc1nc(-c2ccccn2)cs1)c1ccc(Br)s1,0.584 µM
19,COc1ccc2[nH]c(=O)c(CN(Cc3cccnc3)C(=O)Nc3ccccc3)cc2c1,6.16 µM
20,CCc1cc(C(N)=O)c(NC(=O)c2ccc(OC)cc2)s1,1.77 µM
21,COc1ccccc1N(C)S(=O)(=O)c1ccc(Cl)c(C(=O)NNC(=O)c2ccccc2O)c1,2.64 µM
22,CC(C)(C)c1ccc(Oc2ccc(N)cc2)cc1,7.32 µM
23,COC(=O)/C=C\C(=O)Nc1cccc([N+](=O)[O-])c1,1.83 µM

row,Compound,AC50
1,COc1cccc(C(C)=C2SC(=S)NC2=O)c1,9.37 µM
2,Cc1cc(Cl)ccc1C(=O)C1CCCN(C(=O)c2cncs2)C1 (stereo unspecified),4.83 µM
3,CCCCNC(=S)N/N=C1\CCCCc2ccccc21,10.3 µM
4,O=C(O)CSc1nc(-c2ccc(Cl)cc2)nc2c1oc1ccccc12,6.02 µM
5,COc1ccc2c(c1)S/C(=C\C(=O)c1ccncc1)N2C,5.21 µM
6,Cc1onc(-c2ccccc2)c1C(=O)NC(=S)NNC(=O)c1ccc(O)cc1O,4.82 µM
7,COc1ccc(S(=O)(=O)N(C(=O)c2ccncc2)c2ccc(OC(=O)c3ccncc3)cc2)cc1,4.46 µM
8,Cc1cc(Nc2ccccc2)nn1C(=O)c1ccccc1,5.94 µM
9,Cc1cccc(C)c1NS(=O)(=O)c1ccc(-c2cnc(C3CC3)o2)cc1,6.06 µM
10,O=C(N/N=C/c1c(O)n(Cc2ccccc2)c(=O)c2ccccc12)c1cccnc1,6.92 µM
11,CCCCCCCCCCOC(=O)Cn1c(COc2ccc(OC)cc2)[n+](C)c2ccccc21,6.37 µM
12,COc1ccc2cnn(CCOc3cc(C)ccc3C(C)C)c(=O)c2c1OC,5.9 µM
13,COc1ccc(-c2csc(NC(=O)c3ccccc3F)c2C(=O)O)cc1,3.69 µM
14,C[C@@]12CCC3[C@@](CCC4[C@@]3(C)CCC[C@@]4(C)C(=O)NCc3ccccc3)(CC1=O)C2 (stereo partly specified),1.43 µM
15,O=C(O)c1c(NC(=O)N2CCCC2)sc2c1CCCC2,3.42 µM
16,O=NN(CCc1ccncc1)c1ccc(OCc2ccccc2)cc1,5.81 µM
17,Cc1ccc(Sc2cc(C)nc(-c3ccccn3)n2)cc1,3.51 µM
18,CCOC(=O)c1cc2c(=Cc3ccc(N(C)C)cc3)c3ccccc3n2[n+]1C,3.75 µM
19,O=C(Nc1cccc(-c2nc3ccccc3s2)c1)c1cccs1,5.98 µM
